Literature values as cited in patent US8034766B2 (priority 2006, dated 2011).

System: prion
Settings: in vivo

CC(=O)OO [Peracetic acid, peracetic acid]
onward transmission rate following treatment: 100%
